{"source": "patent US9956240B2", "about": "“Therapeutic monosaccharide-based inhibitors of hexokinase and glucokinase for parasitic diseases, along with methods of their formation and use” (University of South Carolina, priority 2014, dated 2018)", "key": {"[1]": {"molecular_target": "T1, T. cruzi glucokinase (TcGlcK) (Trypanosoma cruzi, UniProt Q4E4E1)", "T1 construct": "precedes the start methionine and the 9-residue segment VGKKQKAQL at the C-terminal region was not included; made in house; host or cells: E. coli BL21(DE3)", "T1 sequence (Q4E4E1 entry or part of it)": "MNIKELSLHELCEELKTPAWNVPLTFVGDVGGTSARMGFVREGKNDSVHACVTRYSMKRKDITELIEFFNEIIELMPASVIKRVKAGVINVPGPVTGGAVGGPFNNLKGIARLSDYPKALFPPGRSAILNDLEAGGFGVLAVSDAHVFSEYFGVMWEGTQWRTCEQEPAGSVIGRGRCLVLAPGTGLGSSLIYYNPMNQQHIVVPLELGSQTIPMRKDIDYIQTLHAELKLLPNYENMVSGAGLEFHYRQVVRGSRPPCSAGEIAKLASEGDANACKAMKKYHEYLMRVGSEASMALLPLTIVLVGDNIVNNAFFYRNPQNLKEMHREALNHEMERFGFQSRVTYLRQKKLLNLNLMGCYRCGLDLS", "assay": "Two-enzyme coupled colorimetric glucokinase activity assay (G6PDH/NADPH), TcGlcK", "format": "biochemical", "conditions": "for Glucokinase selectivity ratio = Ki (HsGlcK)/Ki (TcGlcK): higher values indicate better selectivity toward TcGlcK", "method": "(§1) Enzymatic activity of glucokinase from T. cruzi and H. sapiens were both performed using a similar protocol but had minor modifications. In general, a two-enzyme coupled colorimetric assay was performed, as previously described (4). The assay is based on the formation of NADPH (λmax≈340 nm; ϵ340=6,220 M^−1 cm^−1) (5). In the 1st step of the assay, glucokinase/hexokinase in the presence of Mg^2+, ATP, and D-glucose react to form glucose-6-phosphate (G-6-P) and ADP. In the 2nd step, glucose-6-phosphate dehydrogenase (G6PDH) in the presence of the formed G-6-P and NADP^+ react to form 6-phosphogluconolactone and NADPH. All measurements were performed in triplicate at 22° C.\nTcGlcK assays used purified enzyme (0.12 μM for the monomer (0.0051 mg/mL)) that was used in the reaction mixtures, which were carried out with S. cerevisiae G6PDH (0.0064 mg/mL) in an assay buffer [50 mM triethanolamine (pH 7.6), 7.95 mM MgCl2, 0.55 mM ATP, 0.55 mM NADP^+] contained substrate ([D-glucose] ranged from 0.2-15.0 mM) and inhibitor ([BENZ-GlcN] ranged from 0-20 μM; [CBZ-GlcN] ranged from 0-10 μM; [HPOP-GlcN] ranged from 0-10 μM; and [DBT-GlcN] ranged from 0-20 μM). Reactions were performed at room temperature (22° C.) and were terminated after 120 sec (optimal time) using 90 μL of 1.5 M EDTA (pH 8.0). The EDTA solution was prepared from the tetrasodium salt. For quantification of NADPH, UV-visible spectrophotometric absorbance readings were recorded at 338 nm (λ) with an Agilent 8453 UV-visible spectrophotometer exactly 1 min after solutions were treated with the EDTA solution. Concentration of NADPH was determined through Beer's Law using the molar absorptivity of 6,220 M^−1 cm^−1."}, "[2]": {"molecular_target": "T2, Homo sapiens glucokinase (hexokinase IV) (HsGlcK) (Homo sapiens, UniProt P35557)", "T2 construct": "precedes residue K12 (N-terminal segment M1-A11 of HsGlcK was not included); made in house; host or cells: E. coli BL21(DE3)", "T2 sequence (P35557 12-457 limits assumed)": "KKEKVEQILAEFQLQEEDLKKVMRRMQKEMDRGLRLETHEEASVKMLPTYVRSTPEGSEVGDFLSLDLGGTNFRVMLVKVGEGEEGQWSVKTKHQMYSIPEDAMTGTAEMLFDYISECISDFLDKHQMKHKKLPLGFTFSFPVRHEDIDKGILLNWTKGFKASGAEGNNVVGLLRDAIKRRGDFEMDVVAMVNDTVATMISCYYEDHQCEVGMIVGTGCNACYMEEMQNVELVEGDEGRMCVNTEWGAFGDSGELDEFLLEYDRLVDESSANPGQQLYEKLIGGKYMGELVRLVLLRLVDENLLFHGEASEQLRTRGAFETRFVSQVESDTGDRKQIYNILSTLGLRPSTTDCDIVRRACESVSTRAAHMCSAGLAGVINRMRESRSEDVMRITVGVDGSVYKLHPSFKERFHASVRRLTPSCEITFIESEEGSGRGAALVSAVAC", "assay": "Two-enzyme coupled colorimetric glucokinase activity assay (G6PDH/NADPH), HsGlcK", "format": "biochemical", "conditions": "measurements in triplicate, 22° C., substrate D-glucose, compounds tested as racemic mixtures (n ≥ 2), read-out: Ki versus substrate, HsGlcK", "method": "as §1\nHsGlcK assays were performed at room temperature and used the same protocol implemented for TcGlcK (see above) except that the reactions were terminated after 600 sec (optimum time) with 90 μL of 1.5 M EDTA (pH 8.0) and the reaction mixtures had slight modification. Briefly, DTT, which reduces disulfide bonds was added to the stock solution aliquot of HsGlcK on the day of the experiment (e.g. 1.0 μL of 20 mM DTT was mixed with 99.0 μL of 1.0 mg/mL HsGlcK) and was allowed to pre-equilibrate at 4° C. for 30 min prior to running assay reactions. Purified HsGlcK (0.15 μM for the monomer or 0.0077 mg/mL) and S. cerevisiae G6PDH (0.0064 mg/mL) in an assay buffer [50 mM triethanolamine (pH 7.6), 7.95 mM MgCl2, 5.0 mM ATP, 0.55 mM […], 1.0% (v/v) DMSO, 1.0 mM DTT, 5.0 mM KCl] contained substrate ([D-glucose] ranged from 5.0-50.0 mM) and inhibitor ([BENZ-GlcN] ranged from 0-500 μM; [CBZ-GlcN] ranged from 0-500 μM; and [HPOP-GlcN] ranged from 0-500 μM). DBT-GlcN was not used in the inhibition enzymatic assays because this compound absorbs light at the wavelength of NADPH (338 nm) at the concentrations needed for any reasonable inhibition of HsGlcK."}, "[3]": {"tested_on": "T. cruzi (Tulahuen strain) intracellular amastigote parasite cells", "assay": "T. cruzi in-vitro growth inhibition assay, amastigotes co-cultured in NIH/3T3 fibroblasts", "format": "cell-based", "conditions": "Trypanosoma cruzi, NIH3T3, co-cultured within NIH/3T3 fibroblast cells, triplicate", "method": "T. cruzi (Tulahuen strain) intracellular amastigote parasite cells co-cultured within NIH/3T3 mammalian fibroblast cells were tested for in-vitro growth inhibition from each of Samples 1-4. […] Samples 1, 3, and 4 had IC50 values>40 μM. The methods used for producing cultures of T. cruzi cells and mammalian cells in addition to the methods of performing T. cruzi in-vitro inhibition assays were previously described by Andriani and colleagues (20). All biological experimentation was carried out at the Anti-Infectives Screening Core Service Center at New York University School of Medicine, Department of Microbiology."}, "[4]": {"conditions": "colorimetric assay, measurements in triplicate, 22° C., substrate D-glucose, compounds tested as racemic mixtures (n ≥ 2), read-out: Ki versus substrate, TcGlcK"}}, "note": "Read-outs that look alike come from different tables or passages of the source."}
{"smiles": "O=C(N[C@H]1C(O)O[C@H](CO)[C@@H](O)[C@@H]1O)OCc1ccccc1", "note": "(mixture of isomers) [CBZ-GlcN, 2-N-carboxybenzyl-2-deoxy-D-glucosamine]", "values": [{"measurement": "Ki", "setting": "[1]", "result": "0.71 ± 0.05", "unit": "µM"}, {"measurement": "Glucokinase selectivity ratio = Ki (HsGlcK)/Ki (TcGlcK)", "setting": "[1]", "result": 245}, {"measurement": "Ki", "setting": "[2]", "result": "174 ± 50", "unit": "µM"}, {"measurement": "IC50", "setting": "[3]", "result": "> 40", "unit": "µM"}]}
{"smiles": "O=C(N[C@H]1C(O)O[C@H](CO)[C@@H](O)[C@@H]1O)OCC1=Cc2ccccc2S1(=O)=O", "note": "(mixture of isomers) [DBT-GlcN, 2-[[1,1-dioxobenzo[b]thiophen-2-yl]methyloxocarbonylamino]-2-deoxy-D-glucosamine]", "values": [{"measurement": "Ki", "setting": "[1]; [4]", "result": "4.1 ± 0.3", "unit": "µM"}, {"measurement": "IC50", "setting": "[3]", "result": "> 40", "unit": "µM"}]}
{"smiles": "O=C(CCc1ccc(O)cc1)N[C@H]1C(O)O[C@H](CO)[C@@H](O)[C@@H]1O", "note": "(mixture of isomers) [HPOP-GlcN, 2-[[3-(4-hydroxyphenyl)-1-oxopropyl]amino]-2-deoxy-D-glucosamine]", "values": [{"measurement": "Ki", "setting": "[1]", "result": "1.3 ± 0.6", "unit": "µM"}, {"measurement": "Glucokinase selectivity ratio = Ki (HsGlcK)/Ki (TcGlcK)", "setting": "[1]", "result": 186}, {"measurement": "Ki", "setting": "[2]", "result": "242 ± 97", "unit": "µM"}, {"measurement": "IC50", "setting": "[3]", "result": "> 40", "unit": "µM"}]}
{"smiles": "O=C(N[C@H]1C(O)O[C@H](CO)[C@@H](O)[C@@H]1O)c1ccccc1", "note": "(stereo partly drawn) [BENZ-GlcN, 2-benzamido-2-deoxy-D-glucopyranose]", "values": [{"measurement": "Ki", "setting": "[1]; [4]", "result": "32 ± 26", "unit": "µM"}, {"measurement": "Glucokinase selectivity ratio = Ki (HsGlcK)/Ki (TcGlcK)", "setting": "[1]", "result": 12}, {"measurement": "Ki", "setting": "[2]", "result": "376 ± 196", "unit": "µM"}, {"measurement": "IC50", "setting": "[3]", "result": "16.08 ± 0.16", "unit": "µM"}]}
